Legend:
[1] = system: mice; details: mouse, in vivo; cited from earlier work
[2] = system: B- and T-cell proliferation; details: cited from earlier work
[3] = system: BMDM cells; assay: Quantitation of cytokines in supernatant of cultured BMDM cells (toxicity); assay type: cell-based, C57BL/6J mice; details: 100 μM, 24 hours, without stimulating the cells
Method: With the approval of the UCSD and Veteran Affairs San Diego Institutional Animal Care and Use Committees (IACUC), bone marrow-derived macrophage (BMDM) cells were isolated from 6-8 weeks old C57BL/6J mice (Jackson Laboratory) followed by erythrocyte lysis with ammonium chloride, and then seeded in 12-well plates at a concentration of 1×10^6 cells/mL. Cultured cells were differentiated to macrophages with culture media containing monocyte-colony stimulating factor (M-CSF; 10 ng/mL). After 7 days of differentiation, BMDM cells were treated with TNF-α (10 ng/mL) or LPS ([…]) with or without TAT-NEMO^ActPep, TAT-NEMO^ActPep6G, or MLN120B.
BMDM cels were pre-incubated with or without 100 μM TAT-NEMO^ActPep or MLN120B for 24 hours. Negative control cells were treated with 1×PBS or DMSO at the same concentrations as those present in either TAT-NEMO^ActPep or MLN120B, respectively. IL-1β and TNF-α levels were measured from 20 μL supernatant of cultured BMDM cells using U-PLEX mouse cytokine assay kit (Meso Scale Diagnostics) following the manufacturer's protocol. […] Experiments were performed in triplicate.
Further, the potentially toxic effects of a high concentration (100 μM) dose of NEMO^ActPep were tested on IL-1β production in BMDMs without stimulating the cells. […]

## COc1c(Cl)cc2c([nH]c3cnccc32)c1NC(=O)c1cccnc1C [MLN120B]
[1]
  neutrophilia in mice: promote neutrophilia
  septic shock in mice: cause septic shock
[2]
  B- and T-cell proliferation: block B- and T-cell proliferation
[3]
  TNF-α expression / basal levels in BMDM supernatant: reduced basal levels of TNF-α
  production of IL-1β in BMDM supernatant: significantly induced production of mature IL-1β

Source: patent US20240166703A1, “ANTI-INFLAMMATORY PEPTIDE AND METHOD OF USE THEREOF” (The Regents of the University of California, priority 2021, published 2024)
